In patent US20260138959A1, “QUINAZOLINE DERIVATIVE COMPOUND AND USE THEREOF” (VORONOI INC., priority 2021, published 2026):

Assays:
various kinases = experiment: Inhibitory activity against various kinases, DiscoverX scanMAX Kinase panel, % control at 1 μM; format: binding
Description: The activities of the compounds according to the present disclosure on various enzymes were evaluated. Specifically, it was commissioned DiscoverX to measure enzyme selectivity for the compounds of Examples 3, 9, and 83 above, and the experiment was conducted using a panel for scanMAX™ Kinase analysis. Herein, a solution prepared by dissolving in DMSO at a concentration of 1 μM was used as the drug treated with the enzyme, and the control percentage (% control) was determined by the method of Equation 1 below, and the results are shown in Table 8 below.
Herein, when the calculated percentage value for each enzyme was less than 35%, it was determined to have inhibitory activity for the enzyme. Accordingly, among the series of enzymes tested, the enzymes showing the inhibitory activities of the compounds of the present disclosure are summarized and shown in Table 8 below along with the control percentages thereof. (©): less than 10%; ◯: 10% or more to less than 35%).

Ba/F3-c-KIT(D816V) = experiment: Proliferation inhibitory activity on Ba/F3 cell (CellTiter-Glo, 72 hours), c-KIT(D816V); format: cell-based; conditions: Mus musculus, BaF3, read-out: Ba/F3 (nM) c-KIT (D816V) (GI50 class)
Outline: (§1)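 Cells seeded (3×10^3/well), then twelve 3-fold compound concentrations added to 0.00005-10 μM final alongside DMSO control. Plates incubated 72 h at 37 °C. CellTiter-Glo reagent mixed in for ~10 min at room temperature before reading; GI50 fitted from vehicle-normalised data.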

human c-KIT(wt) = target: T1, human c-KIT(wt) (Homo sapiens, UniProt P10721); experiment: Enzyme inhibitory activity, ADP-Glo kinase assay, c-KIT(wt); format: biochemical; conditions: read-out: c-KIT (WT) (IC50 class)
T1 construct: purchased Signalchem K06-11BG
T1 sequence (P10721 26-976): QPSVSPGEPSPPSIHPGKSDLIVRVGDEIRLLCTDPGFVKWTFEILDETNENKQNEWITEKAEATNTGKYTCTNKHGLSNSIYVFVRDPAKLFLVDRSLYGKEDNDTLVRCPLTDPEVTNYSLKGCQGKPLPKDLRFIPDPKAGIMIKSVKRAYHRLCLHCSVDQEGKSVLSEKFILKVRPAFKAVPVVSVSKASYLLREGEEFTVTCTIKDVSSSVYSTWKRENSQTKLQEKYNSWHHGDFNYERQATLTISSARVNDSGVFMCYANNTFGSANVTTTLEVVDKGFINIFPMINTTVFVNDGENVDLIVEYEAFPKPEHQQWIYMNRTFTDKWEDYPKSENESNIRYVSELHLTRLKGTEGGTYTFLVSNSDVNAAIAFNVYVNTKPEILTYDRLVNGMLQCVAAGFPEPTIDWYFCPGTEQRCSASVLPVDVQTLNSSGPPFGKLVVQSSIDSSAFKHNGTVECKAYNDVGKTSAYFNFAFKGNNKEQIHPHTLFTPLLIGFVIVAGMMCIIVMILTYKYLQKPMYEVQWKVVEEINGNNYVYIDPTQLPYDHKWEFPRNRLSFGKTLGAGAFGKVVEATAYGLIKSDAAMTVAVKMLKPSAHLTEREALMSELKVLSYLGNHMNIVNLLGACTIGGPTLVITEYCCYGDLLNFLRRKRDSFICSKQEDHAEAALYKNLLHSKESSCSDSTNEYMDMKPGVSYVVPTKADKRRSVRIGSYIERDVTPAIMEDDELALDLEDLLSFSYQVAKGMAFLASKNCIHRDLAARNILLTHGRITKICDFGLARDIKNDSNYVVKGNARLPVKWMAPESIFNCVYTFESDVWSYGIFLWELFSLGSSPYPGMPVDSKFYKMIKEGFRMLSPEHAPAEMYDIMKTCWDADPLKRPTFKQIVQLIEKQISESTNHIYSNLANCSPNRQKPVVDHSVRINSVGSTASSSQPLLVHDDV
Description: (§2) In order to evaluate the inhibitory activity of the compounds synthesized according to the above examples on PDGFR-α(wt), PDGFR-β(wt), c-KIT(wt), and c-KIT(D816V) kinases, the following method was performed. The compounds of examples were reacted with purified human PDGFR-α(wt) (Signalchem #P12-18G) enzyme, human PDGFR-β(wt) (Signalchem #P13-11G) enzyme, human c-KIT(wt) (Signalchem #K06-11BG) enzyme, human c-KIT(D816V) (Signalchem #C06-12LG) enzyme, and the enzyme inhibitory abilities were evaluated by the following method.
(§3) The reaction buffer was used as a composition of 40 mM Tris-HCl pH7.4, 20 mM MgCl2, 0.5 mg/ml BSA, 50 μM DTT, and the reactions of all the tests were carried out on the reaction buffer. The compound was diluted in 12 steps using a serial dilution method from a 10 mM DMSO stock, and the enzyme activity was measured at a final compound concentration of 10˜0.00005645 μM. During the test, the enzyme activity was confirmed using in vitro ADP-Glo™ kinase assay (Promega) after reacting with the proper concentration of human PDGFR-α(wt) enzyme, human PDGFR-β(wt), human c-KIT(wt) enzyme, and human c-KIT(D816V) enzyme with purified ATP and enzyme substrate at 25° C. for 1˜2 hours. At a ratio of 2:2:1, an enzyme-active reaction solution, an ADP-Glo reaction solution, and an enzyme-active detection solution were reacted to measure the inhibition of the enzyme's activity with luminoscence. Based on the […] of the enzyme activity of the solvent control that was not treated with the compound, the degree of enzyme activity inhibition was calculated according to the treatment concentration of each compound, and the concentration of each compound that inhibits 50% of enzyme activity was determined as IC50 (nM) value and the value was obtained by using GraphPad Prism 8.3.0 (GraphPad software Inc., San Diego) software. (A: IC50≤50 nM; B: 50 nM<IC50≤100 nM; C: 100 nM<IC50≤500 nM; D: IC50>500 nM).

c-KIT D816V [1] = target: T2, c-KIT D816V (Homo sapiens, UniProt P10721, D816V); experiment: Enzyme inhibitory activity, ADP-Glo kinase assay, c-KIT(D816V); format: biochemical; parameters: purchased Signalchem C06-12LG; conditions: read-out: c-KIT (D816V) (IC50 class)
T2 sequence (P10721 26-976 D816V): as the sequence (P10721 26-976) above, with D791V counted along it
Description: as §2, §3

Ba/F3-TEL-PDGFRα(WT) = experiment: Proliferation inhibitory activity on Ba/F3 cell (CellTiter-Glo, 72 hours), PDGFR-α; format: cell-based; conditions: Mus musculus, BaF3, read-out: Ba/F3 (nM) Tel-PDGFRα (GI50 class)
Outline: as §1

Ba/F3-TEL-PDGFβ(WT) = experiment: Proliferation inhibitory activity on Ba/F3 cell (CellTiter-Glo, 72 hours), PDGFR-β; format: cell-based; conditions: Mus musculus, BaF3, read-out: Ba/F3 (nM) Tel-PDGFRβ (GI50 class)
Outline: as §1

human PDGFR-β(wt) = target: T3, human PDGFR-β(wt) (Homo sapiens, UniProt P09619); experiment: Enzyme inhibitory activity, ADP-Glo kinase assay, PDGFR-β(wt); format: biochemical; conditions: read-out: PDGFR-β (IC50 class)
T3 construct: purchased Signalchem P13-11G
T3 sequence (P09619 33-1106): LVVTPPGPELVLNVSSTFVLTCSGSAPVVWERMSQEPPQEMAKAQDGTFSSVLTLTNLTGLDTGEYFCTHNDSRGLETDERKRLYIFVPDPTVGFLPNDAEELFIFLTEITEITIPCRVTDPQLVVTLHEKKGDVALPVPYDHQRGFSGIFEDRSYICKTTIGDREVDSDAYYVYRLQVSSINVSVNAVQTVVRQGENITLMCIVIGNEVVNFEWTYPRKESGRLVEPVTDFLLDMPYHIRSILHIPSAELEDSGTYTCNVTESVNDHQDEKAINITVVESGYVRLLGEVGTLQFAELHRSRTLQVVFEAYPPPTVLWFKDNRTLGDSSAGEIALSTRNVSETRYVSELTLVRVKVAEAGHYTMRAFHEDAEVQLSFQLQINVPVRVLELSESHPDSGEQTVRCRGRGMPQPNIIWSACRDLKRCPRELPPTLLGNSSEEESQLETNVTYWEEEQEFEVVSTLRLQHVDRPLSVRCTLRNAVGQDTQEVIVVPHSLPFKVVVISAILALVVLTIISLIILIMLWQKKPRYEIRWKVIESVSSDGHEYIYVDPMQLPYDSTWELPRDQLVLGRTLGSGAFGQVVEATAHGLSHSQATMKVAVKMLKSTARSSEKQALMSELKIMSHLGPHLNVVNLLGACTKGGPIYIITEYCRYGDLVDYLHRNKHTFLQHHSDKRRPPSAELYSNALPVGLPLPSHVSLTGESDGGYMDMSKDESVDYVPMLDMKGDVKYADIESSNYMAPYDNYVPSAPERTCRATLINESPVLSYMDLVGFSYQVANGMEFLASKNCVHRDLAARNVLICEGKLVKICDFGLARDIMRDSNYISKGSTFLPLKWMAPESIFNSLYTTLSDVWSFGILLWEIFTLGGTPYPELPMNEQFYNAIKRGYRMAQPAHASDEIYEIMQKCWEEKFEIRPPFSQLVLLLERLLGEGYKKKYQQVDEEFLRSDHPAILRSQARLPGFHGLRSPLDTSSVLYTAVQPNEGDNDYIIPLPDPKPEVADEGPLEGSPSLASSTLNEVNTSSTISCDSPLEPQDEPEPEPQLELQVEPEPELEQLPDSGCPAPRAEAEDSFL
Outline: (§4)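 Purified human kinases incubated with ATP and substrate 1–2 h at 25 °C in 40 mM Tris-HCl pH 7.4, 20 mM MgCl2, BSA, DTT, compound over 12 concentrations (10–0.00005645 μM final). ADP formed quantified by ADP-Glo luminescence; IC50 from inhibition versus DMSO control, reported in bins A–D.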

human PDGFR-α(wt) = target: T4, human PDGFR-α(wt) (Homo sapiens, UniProt P16234); experiment: Enzyme inhibitory activity, ADP-Glo kinase assay, PDGFR-α(wt); format: biochemical; conditions: read-out: PDGFR-α (IC50 class)
T4 construct: purchased Signalchem P12-18G
T4 sequence (P16234 24-1089): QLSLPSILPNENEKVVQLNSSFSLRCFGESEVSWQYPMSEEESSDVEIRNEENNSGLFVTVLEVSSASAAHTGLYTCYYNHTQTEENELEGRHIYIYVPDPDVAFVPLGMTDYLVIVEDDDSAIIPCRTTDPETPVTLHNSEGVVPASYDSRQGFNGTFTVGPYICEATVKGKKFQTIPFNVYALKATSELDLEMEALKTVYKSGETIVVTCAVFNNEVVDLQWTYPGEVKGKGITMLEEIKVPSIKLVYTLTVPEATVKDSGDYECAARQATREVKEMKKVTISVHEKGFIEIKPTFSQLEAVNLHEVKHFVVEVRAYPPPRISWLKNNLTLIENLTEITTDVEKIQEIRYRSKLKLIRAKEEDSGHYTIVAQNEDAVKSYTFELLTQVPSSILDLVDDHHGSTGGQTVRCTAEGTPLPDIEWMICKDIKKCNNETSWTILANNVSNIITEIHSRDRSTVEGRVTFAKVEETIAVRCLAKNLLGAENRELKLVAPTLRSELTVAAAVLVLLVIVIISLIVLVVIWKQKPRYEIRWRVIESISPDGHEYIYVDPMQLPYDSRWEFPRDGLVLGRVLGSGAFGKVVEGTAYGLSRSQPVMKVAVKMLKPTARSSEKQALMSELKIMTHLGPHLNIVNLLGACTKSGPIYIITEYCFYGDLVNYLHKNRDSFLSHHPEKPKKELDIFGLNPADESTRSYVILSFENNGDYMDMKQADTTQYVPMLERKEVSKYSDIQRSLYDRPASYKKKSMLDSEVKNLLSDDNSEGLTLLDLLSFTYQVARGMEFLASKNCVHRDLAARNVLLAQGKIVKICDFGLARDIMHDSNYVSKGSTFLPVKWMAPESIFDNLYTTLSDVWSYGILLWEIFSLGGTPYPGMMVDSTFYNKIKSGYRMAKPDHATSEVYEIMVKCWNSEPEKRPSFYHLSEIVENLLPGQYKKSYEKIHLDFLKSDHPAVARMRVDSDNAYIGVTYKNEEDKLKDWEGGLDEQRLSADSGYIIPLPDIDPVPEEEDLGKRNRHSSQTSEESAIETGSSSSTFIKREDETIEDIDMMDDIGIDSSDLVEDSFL
Outline: as §4

c-KIT D814Y = experiment: Proliferation inhibitory activity on Ba/F3 cell (CellTiter-Glo, 72 hours), c-KIT D814Y; format: cell-based; conditions: Mus musculus, BaF3, c-KIT D814Y cells, read-out: Cell (nM) c-KIT D814Y (GI50 class)
Description: Ba/F3-TEL-PDGFRα(WT), Ba/F3-TEL-PDGFβ(WT), Ba/F3-c-KIT(D816V) (Kyinno, #KC-0138), c-KIT V560G/D816V, c-KIT D814Y were seeded at 3×10^3/100 μl/well in a clear bottom white 96-well plate. A culture solution containing compounds of 12 concentrations (0.00001-2 mM) serially diluted in 3 folds and the DMSO control group was added at 0.5 μl/well each to a final concentration of 0.00005-10 μM, and then incubated in a CO2 incubator at 37° C. for 72 hours. After 72 hours, the plate treated with the compound was taken out, CellTiter-Glo® Assay (Promega) solution was treated with 100 μl/well, followed by mixing well. After mixing well for about 10 minutes at room temperature, […] was measured using a microplate reader. The data were presented as percentages in proportion to treated cells based on the vehicle, GI50 (nM) values were calculated using GraphPad Prism 8.3.0 (GraphPad software Inc., San Diego).
The inhibitory activities of Ba/F3 expressing PDGFR-α, PDGFR-β, c-KIT(D816V), c-KIT V560G/D816V, and c-KIT D814Y measured as described above were measured and shown in Table 7 below (A: GI50≤200 nM; B: 200 nM<GI50≤500 nM; C: GI50>500 nM).

c-KIT V560G/D816V = experiment: Proliferation inhibitory activity on Ba/F3 cell (CellTiter-Glo, 72 hours), c-KIT V560G/D816V; format: cell-based; conditions: Mus musculus, BaF3, c-KIT V560G/D816V cells, read-out: Cell (nM) c-KIT V560G/D816V (GI50 class)
Outline: as §1

c-KIT D816V [2] = target: T2, c-KIT D816V; conditions: background art; cited from earlier work

In the case of COc1cc2c(-c3ccc(NC(=O)Cc4ccc(C(F)(F)F)cc4)cc3)ncnc2cc1OCCCN1CCN(C)CC1 [Example 9, N-(4-(6-methoxy-7-(3-(4-methylpiperazin-1-yl)propoxy)quinazolin-4-yl)phenyl)-2-(4-(trifluoromethyl)phenyl)acetamide], the “control percentage (% control), KIT” value (various kinases) is reported as “⊚”, the “control percentage (% control), KIT (A829P)” value (various kinases) is reported as “⊚” and the “control percentage (% control), KIT (D816H)” value (various kinases) is reported as “⊚”. The “control percentage (% control), KIT (D816V)” value (various kinases) was “⊚”, the “control percentage (% control), KIT (L576P)” value (various kinases) was “◯ (◯: 10% or more to less than 35%)” and the “control percentage (% control), KIT (V559D)” value (various kinases) was “◯ (◯: 10% or more to less than 35%)”. The GI50 (Ba/F3-c-KIT(D816V)) was at most 200 nM, the IC50 (human c-KIT(wt)) was at most 50 nM and the IC50 (c-KIT D816V [1]) was at most 50 nM. The GI50 (Ba/F3-TEL-PDGFRα(WT)) was at most 200 nM, the GI50 (Ba/F3-TEL-PDGFβ(WT)) was at most 200 nM and the IC50 (human PDGFR-β(wt)) was at most 50 nM. For the same molecule, the IC50 (human PDGFR-α(wt)) was at most 50 nM, the GI50 (c-KIT D814Y) was at most 200 nM and the GI50 (c-KIT V560G/D816V) was at most 200 nM.

Molecule CCN(CC)CCOc1cc2ncnc(-c3ccc(NC(=O)Cc4ccc(C(F)(F)F)cc4)cc3)c2cc1OC [Example 1, N-(4-(7-(2-(diethylamino)ethoxy)-6-methoxyquinazolin-4-yl)phenyl)-2-(4-(trifluoromethyl)phenyl)acetamide] has a GI50 (Ba/F3-c-KIT(D816V)) of at most 200 nM, an IC50 (human c-KIT(wt)) of at most 50 nM and an IC50 (c-KIT D816V [1]) of at most 50 nM. It also gave a GI50 (Ba/F3-TEL-PDGFRα(WT)) of at most 200 nM, a GI50 (Ba/F3-TEL-PDGFβ(WT)) of at most 200 nM and an IC50 (human PDGFR-β(wt)) of at most 50 nM. For the same molecule, the IC50 (human PDGFR-α(wt)) was at most 50 nM and the GI50 (c-KIT V560G/D816V) was at most 200 nM.

CCN(CC)CCCOc1cc2ncnc(-c3ccc(NC(=O)Cc4ccc(C(F)(F)F)cc4)cc3)c2cc1OC [Example 11, N-(4-(7-(3-(diethylamino)propoxy)-6-methoxyquinazolin-4-yl)phenyl)-2-(4-(trifluoromethyl)phenyl)acetamide] gave a GI50 (Ba/F3-c-KIT(D816V)) of at most 200 nM, an IC50 (human c-KIT(wt)) of at most 50 nM and an IC50 (c-KIT D816V [1]) of at most 50 nM. For the same molecule, the GI50 (Ba/F3-TEL-PDGFRα(WT)) was at most 200 nM, the GI50 (Ba/F3-TEL-PDGFβ(WT)) was at most 200 nM and the IC50 (human PDGFR-β(wt)) was at most 50 nM. For the same molecule, the IC50 (human PDGFR-α(wt)) was at most 50 nM, the GI50 (c-KIT D814Y) was at most 200 nM and the GI50 (c-KIT V560G/D816V) was at most 200 nM.

For COc1cc2c(-c3ccc(NC(=O)Cc4ccc(C(F)(F)F)cc4)cc3)ncnc2cc1OCCN1CCN(C)CC1 [Example 3, N-(4-(6-methoxy-7-(2-(4-methylpiperazin-1-yl)ethoxy)quinazolin-4-yl)phenyl)-2-(4-(trifluoromethyl)phenyl)acetamide], the “control percentage (% control), KIT” value (various kinases) was “⊚”, the “control percentage (% control), KIT (A829P)” value (various kinases) was “⊚” and the “control percentage (% control), KIT (D816H)” value (various kinases) was “⊚”. For the same molecule, the “control percentage (% control), KIT (D816V)” value (various kinases) was “⊚”, the “control percentage (% control), KIT (L576P)” value (various kinases) was “⊚” and the “control percentage (% control), KIT (V559D)” value (various kinases) was “⊚”. The “control percentage (% control), KIT (V559D, T670I)” value (various kinases; KIT (V559D, T670I)) was “◯ (◯: 10% or more to less than 35%)”, the “control percentage (% control), KIT (V559D, V654A)” value (various kinases; KIT (V559D, V654A)) was “⊚” and the “control percentage (% control), KIT-autoinhibited” value (various kinases; KIT-autoinhibited) was “◯ (◯: 10% or more to less than 35%)”. For the same molecule, the “control percentage (% control), PDGFRA” value (various kinases; PDGFRA) was “⊚”, the “control percentage (% control), PDGFRB” value (various kinases; PDGFRB) was “⊚” and the GI50 (Ba/F3-c-KIT(D816V)) was at most 200 nM. For the same molecule, the IC50 (human c-KIT(wt)) was at most 50 nM, the IC50 (c-KIT D816V [1]) was at most 50 nM and the GI50 (Ba/F3-TEL-PDGFRα(WT)) was at most 200 nM. For the same molecule, the GI50 (Ba/F3-TEL-PDGFβ(WT)) was at most 200 nM, the IC50 (human PDGFR-β(wt)) was at most 50 nM and the IC50 (human PDGFR-α(wt)) was at most 50 nM. It also gave a GI50 (c-KIT D814Y) of at most 200 nM and a GI50 (c-KIT V560G/D816V) of at most 200 nM.

For Cc1ccc(NC(=O)c2ccc(CN3CCN(C)CC3)cc2)cc1Nc1nccc(-c2cccnc2)n1 [imatinib], the “effect of inhibiting c-KIT D816V” value (c-KIT D816V [2]) is given as “no effect”.
